Reference: US20130266665A1, “NANO[…] DISEASE THERAPY” (priority 2012, published 2013)

Assays:
Assay type in all cases: cell-based, human
OVCAR5 cells = experiment: AFM cell stiffness (Young's modulus, peak indentation depth) of cisplatin-sensitive OVCAR5 cells; conditions: for Young's modulus E (mean±SEM), peak 2 / Young's modulus E (mean±SEM), peak 1: about 24 hours
Source text: (§1) SKOV3 (American Type Culture Collection; Manassas, Va.) and OVCAR5 cells were maintained in Dulbecco's Modified Eagle's Medium supplemented with about 10% fetal bovine serum. SKOV3-CisR and OVCAR5-CisR cells were established by exposing the parental SKOV3 and OVCAR5 cell lines, respectively, to increasing concentrations of cisplatin over 12 months. OVCAR5-CisR cells are about 20- and SKOV3-CisR cells are about 8-fold more resistant to cisplatin compared to their syngeneic cisplatin sensitive counterparts. Cells were grown at about 37° C. in a humidified atmosphere containing about 5% CO2 and about 95% air.
(§2) Cells were treated with about 1 or about 5 μg/mL cisplatin (Sigma-Aldrich, St. […]
(§3) A protocol was established to exclude unhealthy or apoptotic cells from measurements by staining cells with AnnexinV (Sigma-Aldrich) as an indicator of apoptosis. Stained cells are dead or apoptotic, and typically float away and are no longer attached to a surface. Cells that stained positive for AnnexinV were excluded from AFM analysis. Measurements were conducted using a Catalyst AFM (Bruker Instruments, Santa Barbara, Calif.) with a combined inverted optical/confocal microscope (Zeiss Corp., Thornwood, N.Y.). This combination permits lateral positioning of an AFM tip over the cell center with submicron precision. AFM images and mechanical measurements were collected in contact mode using sharpened silicon nitride cantilevers with experimentally determined spring constants of about 0.02 N/m and a tip radius of less than about 20 nm. Mechanical measurements were obtained at about 37° C. with force measurements recorded at a pulling rate of about 1 Hz. Force-displacement curves were recorded for determination of Young's modulus values. Conversion of force-displacement curves to force-indentation curves allows the determination of the local cell surface elasticity or stiffness (Young's modulus, E). The measurement outcomes include averaged E values. Nanoscope files were converted to Igor. 6.0 (Wavemetrix) and used to generate two-dimensional (2D) stiffness matrix of the cell populations, allowing more precise determination of localized cell stiffness. AFM measurements were obtained in at least 60 cells in three different experiments. The AFM tip was precisely positioned (within micron range) on top of the nucleus using motorized stage and inverted optical view of the combined confocal-AFM microscope.
(§4) Data were expressed as mean±standard error of mean (SEM). Statistical significance was identified by Student's t-test or one-way analysis of variance (Origin 8.0, OriginLab Corporation, Northmpton, Mass.) for the difference among treated pairs.

OVCAR5-CisR cells [1] = experiment: AFM cell stiffness (Young's modulus, peak indentation depth) of cisplatin-resistant OVCAR5-CisR cells
Source text: as §1, §2, §3, §4

OVCAR5-CisR cells [2] = experiment: Resistance to cisplatin of OVCAR5-CisR cells versus parental OVCAR5; conditions: OVCAR5-CisR vs OVCAR5
Source text: as §1

SKOV3-CisR cells = experiment: Resistance to cisplatin of SKOV3-CisR cells versus parental SKOV3; conditions: SKOV3-CisR vs SKOV3
Source text: as §1

[3] = about 5 μM cytochalasin D alone

Question: With `C=C1[C@@H](C)[C@H]2[C@H](Cc3ccccc3)NC(=O)[C@]23[C@H](OC(C)=O)/C=C/[C@@](C)(O)C(=O)[C@@H](C)C/C=C/[C@H]3[C@@H]1O` [cytochalasin D] as the compound, how does the “Young's modulus E” value (OVCAR5 cells; [3]) read?
Answer: Its value is 0.34±0.02 kPa.

Question: And the “Young's modulus E” value (OVCAR5-CisR cells [1]; [3])?
Answer: The value was 0.45±0.01 kPa.

Question: Which results are given for `N.N.[Cl][Pt][Cl]` [cisplatin, cis-diamminedichloridoplatinum(II)]?
Answer: Young's modulus E (mean±SEM), peak 2 (OVCAR5 cells; about 1 μg/mL cisplatin): 1.23±0.04 kPa; Young's modulus E (mean±SEM), peak 1 (OVCAR5 cells; about 1 μg/mL cisplatin, untreated E=0.64±0.03 kPa): 0.53±0.01 kPa; Young's modulus E (mean±SEM), peak 1 (OVCAR5 cells; about 5 μg/mL cisplatin): 0.65±0.01 kPa; Young's modulus E (mean±SEM), peak 2 (OVCAR5 cells; about 5 μg/mL cisplatin): 1.28±0.06 kPa; peak indentation depth (OVCAR5 cells; cisplatin 1 μg/mL, untreated 1.2±0.04 μm): 0.7±0.03 μm; peak indentation depth (OVCAR5 cells; cisplatin 5 μg/mL): 0.5±0.03 μm; fold more resistant to cisplatin compared to syngeneic cisplatin sensitive counterpart (OVCAR5-CisR cells [2]): 20 fold; difference in cell stiffness between untreated and cisplatin-treated cells (OVCAR5-CisR cells [1]; cisplatin 5 μg/mL, P=0.45): no significant difference; localized peak indentation (OVCAR5-CisR cells [1]; cisplatin 5 μg/mL, untreated 0.5±0.06 μm): 0.5±0.04 μm; Young's modulus E, peak 1 (OVCAR5-CisR cells [1]; cisplatin 5 μg/mL, untreated 1.0±0.03 kPa): 0.97±0.01 kPa; Young's modulus E, peak 2 (OVCAR5-CisR cells [1]; cisplatin 5 μg/mL, untreated 1.84±0.1 kPa): 1.88±0.05 kPa; fold more resistant to cisplatin compared to syngeneic cisplatin sensitive counterpart (SKOV3-CisR cells): 8 fold
